Holding throughout (experiment): growth of human tumour cells (NCI), 48 h
For assay [1], the system named is SR.
Assay [2] relates to OVCAR-3.
In assay [3] the test system is U-251.
The subject of assay [4] is NCI-H226.
For assay [5], the system named is NCI-H460.
The subject of assay [6] is HOP-62.
Assay [7] relates to SK-MEL-28.
The subject of assay [8] is SK-MEL-5.
Assay [9] deals with NCI-H522.
Assay [10] relates to M19-MEL.
Assay [11] has as its system HL-60.
For assay [12], the system named is SNB-75.
Assay [13] concerns CAKI-1.
Assay [14] has as its system HCT-116.
Assay [15] concerns RPMI-8226.
For assay [16], the system named is SW-620.
For assay [17], the system named is HCC 2998.
Assay [18] concerns MOLT-4.

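All cell lines were grown in 96-well plates and treated with compound for 48 hours. The concentration for 50% growth inhibition is given as GI50.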 The source made the active and inactive calls. Cut-off read from the data, not from the text of the source: active = GI50 up to about 1.1 µM and inactive = higher.

With `Nc1nc(O)c2c(ncn2CC(O)CO)n1` (stereo not drawn), the GI50 in [1], in assay [2], in assay [3], in assay [4], in [5] and in [6] was > 100 µM (inactive) each time. Also, the GI50 in assay [7], in assay [8], in assay [9], in assay [10], in assay [11] and in assay [12] was > 100 µM (inactive) each time. Moreover, the GI50 in [13], in assay [14], in [15] and in assay [16] was > 100 µM (inactive) in each case.

Consider `Cc1ccc(NC(=O)/C(Cl)=C(/Cl)C(=O)O)cc1`, for which the GI50 in assay [1] was 18.2 µM (inactive); in [2] it was 18.1 µM (inactive); in assay [3] it was 17.1 µM (inactive); in assay [4], 31.8 µM (inactive); in assay [5] it was > 100 µM (inactive); in assay [6], 71.4 µM (inactive). In addition, the GI50 in assay [7] is 18.9 µM (inactive); in assay [8] it was 28.4 µM (inactive); in assay [9], 1.9 µM (inactive); in assay [10], 16 µM (inactive); in assay [17], 19.7 µM (inactive); in [11] it was 1.64 µM (inactive). Moreover, the GI50 in assay [12] was 17.7 µM (inactive); in [13], 17.3 µM (inactive); in assay [18], 11.5 µM (inactive); in assay [14], 15 µM (inactive); in assay [15] it was 14.8 µM (inactive); in assay [16] it was 15.1 µM (inactive).

Consider `CC1(OCc2ccccc2)C(=O)N2C1N(C(=O)OCc1ccccc1)CC2(C)C` (stereo not drawn), for which the GI50 is 30.5 µM (inactive) in [1]; > 100 µM (inactive) in assay [2]; 49.3 µM (inactive) in [3]; 41.4 µM (inactive) in assay [4]; 42.6 µM (inactive) in [5]; 82.4 µM (inactive) in assay [6]. In addition, the GI50 was > 100 µM (inactive) in [7]; 17.9 µM (inactive) in assay [8]; 32.1 µM (inactive) in [10]; > 100 µM (inactive) in assay [17]; 29.4 µM (inactive) in assay [11]; 32.4 µM (inactive) in assay [12]. The GI50 is 28.2 µM (inactive) in [18], 69.8 µM (inactive) in [14], 27.5 µM (inactive) in [15] and > 100 µM (inactive) in assay [16].

Turning to `CCN(CC)C(=O)N1CCN(C=S)CC1`, the GI50 in [1], in [2], in assay [3], in [4], in assay [5] and in assay [6] was > 100 µM (inactive) throughout. Also, the GI50 in [7], in assay [8], in assay [9], in assay [10], in [17] and in [11] was > 100 µM (inactive) each time. Moreover, the GI50 in assay [12], in assay [18], in assay [14] and in [16] was > 100 µM (inactive) throughout.

For `N#Cc1cc([N+](=O)[O-])ccc1NC(=O)C(=O)Nn1c(S)nc2ccccc2c1=O`, the GI50 in assay [1], in assay [2], in assay [3], in assay [4], in assay [5] and in assay [6] was > 100 µM (inactive) throughout. Moreover, the GI50 in [7], in assay [8], in assay [9], in assay [10], in [17] and in [11] was > 100 µM (inactive) each time. The GI50 in assay [12], in [13], in [14], in assay [15] and in assay [16] was > 100 µM (inactive) in each case.

As for `CCOC(=O)C(C)(C)Oc1ccc2c(-c3ccccc3)cc(=O)oc2c1`, the GI50 is 24.9 µM (inactive) in assay [1]; 33.9 µM (inactive) in assay [2]; 36.3 µM (inactive) in assay [3]; 33.3 µM (inactive) in assay [4]; > 100 µM (inactive) in [5]; 23.1 µM (inactive) in [6]. Further, the GI50 in assay [7] was 35.6 µM (inactive); in assay [8], 13.9 µM (inactive); in assay [10] it was 32.2 µM (inactive); in assay [17] it was 98.4 µM (inactive); in [11], 20.1 µM (inactive); in assay [12], 12.9 µM (inactive). Besides, the GI50 is 20.2 µM (inactive) in assay [18], 35.6 µM (inactive) in assay [14], 18.1 µM (inactive) in [15] and 36.7 µM (inactive) in assay [16].

In the case of `O=[N+]([O-])c1ccc(-c2ccc(C3=Nn4c(CNc5ccccc5Cl)nnc4SC3)o2)cc1`, the GI50 in [1], in assay [2], in assay [3], in assay [4], in assay [5] and in assay [6] was > 100 µM (inactive) in each case. The GI50 in [7], in [9], in [10], in assay [17], in assay [11] and in assay [12] was > 100 µM (inactive) each time. The GI50 in assay [13], in assay [18], in [14], in assay [15] and in [16] was > 100 µM (inactive) throughout.

As for `COc1ccc(NC(=O)C2C(=O)N(c3ccc(OC)cc3)C(=O)/C2=N/O)cc1` (stereo not drawn), the GI50 in [1] is > 100 µM (inactive); in assay [2], 24.7 µM (inactive); in assay [3], 22.3 µM (inactive); in assay [4], 23.8 µM (inactive); in assay [5], 21.9 µM (inactive); in assay [6], 23.5 µM (inactive). Besides, the GI50 in [7] is 37.8 µM (inactive); in assay [9] it was 22.7 µM (inactive); in [10] it was 26.5 µM (inactive); in assay [17] it was 21 µM (inactive); in assay [11], > 100 µM (inactive); in assay [12] it was 32.2 µM (inactive). Moreover, the GI50 in [13] was 32.7 µM (inactive); in assay [18] it was > 100 µM (inactive); in assay [14], 21.6 µM (inactive); in assay [15], > 71.9 µM (inactive); in assay [16], > 61.9 µM (inactive).

Take `O=C(Cc1ccccc1)NN1C(=O)C(Cl)C1c1cccc(O)c1` (stereo not drawn): the GI50 in [1] is 3.58 µM (inactive); in assay [2] it was 14.6 µM (inactive); in [3], 11.9 µM (inactive); in assay [4] it was 21.7 µM (inactive); in assay [5], 15.3 µM (inactive); in assay [6], 27.2 µM (inactive). Also, the GI50 in assay [7] was 18.4 µM (inactive); in assay [9], 9.23 µM (inactive); in assay [10], 18 µM (inactive); in assay [17], 20.2 µM (inactive); in assay [11], 11.8 µM (inactive); in assay [12], 26.5 µM (inactive). The GI50 in assay [13] is 17.9 µM (inactive); in assay [18], 7.69 µM (inactive); in assay [14], 13.6 µM (inactive); in assay [15], 2.84 µM (inactive); in assay [16], 5.2 µM (inactive).

As for `COC(=O)C1Cc2c([nH]c3ccccc23)[C@H](CC(C)C)N1` (stereo partly drawn), the GI50 in assay [1], in assay [2], in [3], in [4], in assay [6] and in assay [7] was > 100 µM (inactive) throughout. The GI50 in assay [9] was > 100 µM (inactive); in assay [10], > 100 µM (inactive); in assay [17], > 100 µM (inactive); in assay [11] it was > 100 µM (inactive); in [12], 97.5 µM (inactive); in [18] it was > 100 µM (inactive). Moreover, the GI50 in assay [14], in assay [15] and in [16] was > 100 µM (inactive) each time.

On to `CCCCCCCCCC(=O)N[C@H]1CCc2cc(OC)c(OC)c(OC)c2-c2ccc(SC)c(=O)cc21`, for which the GI50 was 0.0328 µM (active) in [1]; 0.0226 µM (active) in assay [2]; 0.0274 µM (active) in [3]; 0.0231 µM (active) in assay [4]; 0.0347 µM (active) in assay [5]; 0.0478 µM (active) in [6]. For the same molecule, the GI50 is 0.024 µM (active) in assay [8]; < 0.01 µM (active) in assay [9]; 0.0445 µM (active) in [10]; 0.0247 µM (active) in assay [17]; 0.034 µM (active) in assay [11]; 0.0395 µM (active) in assay [12]. In addition, the GI50 in assay [13] was 0.056 µM (active); in assay [18], 0.0392 µM (active); in [14] it was 0.0209 µM (active); in assay [15], 0.0422 µM (active); in [16], 0.0316 µM (active).

With `CC(=O)O[C@@]12CO[C@@H]1C[C@H](O)[C@@]1(C)C(=O)[C@H](O)C3=C(C)[C@@H](OC(=O)[C@H](O)[C@@H](NC(=O)OC(C)(C)C)c4ccccc4)C[C@@](O)([C@@H](OC(=O)c4ccccc4)[C@H]21)C3(C)C` [DOCETAXEL], the GI50 in [1] was < 0.01 µM (active); in assay [2], < 0.01 µM (active); in assay [3] it was < 0.01 µM (active); in assay [5], 0.00291 µM (active); in assay [6] it was < 0.01 µM (active); in assay [8], < 0.01 µM (active). Also, the GI50 in [9] was < 0.01 µM (active); in [10] it was < 0.01 µM (active); in assay [17] it was < 0.01 µM (active); in [11], < 0.0631 µM (active); in [12] it was < 0.01 µM (active); in [13], 0.0417 µM (active). Further, the GI50 in [18] is < 0.0631 µM (active); in [14], < 0.01 µM (active); in [15] it was < 0.01 µM (active); in assay [16], < 0.01 µM (active).

For the origin of these results see ChEMBL document CHEMBL1201862, “PubChem BioAssay data set” (2004).
